Each structure is given as a SMILES string.

Data set [1] is described as follows: Chlorhexidine free base saturation in methanol. Type of data set: physicochemical. The settings on record: CHX/methanol solutions. From the text:
Solution was made with […] chlorhexidine free base (CHX) in methanol. CHX/methanol solutions appeared to reach saturation around 1000 ppm. Serial dilutions were made from the solution, where the UV-Vis would become overloaded when concentrations were above 200 ppm. In order to avoid overloading the UV-Vis, concentrations below 100 ppm were used to collect absorbance values. FIG. 8 and Table 6 show the absorbance data collected from the chlorhexidine free base standards.

Data set [2] deals with P. aeruginosa. As to conditions: cited from earlier work.
Data set [3] has as its system A. baumannii. As to conditions: cited from earlier work.

Turning to `[H]/N=C(\N/C(=N/[H])NCCCCCCNC(=N)NC(=N)Nc1ccc(Cl)cc1)Nc1ccc(Cl)cc1` [chlorhexidine], the “saturation concentration in methanol” value in data set [1] is given as “around 1000 ppm”. The “largest known minimum bactericidal concentration (MBC)” value in data set [2] is 128 µg/mL. In addition, the “largest known minimum inhibitory concentration (MIC)” value in data set [3] is 64 µg/mL.

These data come from patent US12194198B2, “High strength porous materials for controlled release” (Access Vascular, Inc., priority 2018, dated 2025).
